This is an account of results in ChEMBL document CHEMBL2390858, “Design, synthesis and anti-tuberculosis activity of 1-adamantyl-3-heteroaryl ureas with improved in vitro pharmacokinetic properties” (Bioorg Med Chem, 2013).

Molecules are shown by their SMILES. In brackets after ≈: the same amount, converted by molar mass.

For series [1], the system named is Staphylococcus aureus. Kind of series: microbe, parasite or virus in culture. The conditions noted are these: ATCC 29213.
Series [2] deals with Proteus vulgaris. Kind of series: microbe, parasite or virus in culture.
Series [3] has as its system Escherichia coli. The series can be described thus: microbe, parasite or virus in culture. As to conditions: K-12.
For series [4] the following is noted: buffer, 18 h, pH 7.4.
The subject of series [5] is Streptococcus pyogenes. Kind of series: microbe, parasite or virus in culture.
The subject of series [6] is Staphylococcus aureus. The series can be described thus: microbe, parasite or virus in culture. As to conditions: NRS70.
Series [7] in a line: Metabolic stability in CD-1 mouse liver microsomes assessed as compound remaining after 90 mins in presence of NADPH. The conditions noted are these: read-out: Stability. It counts as ADME, Microsome.
Series [8] has as its system Proteus mirabilis. The series can be described thus: microbe, parasite or virus in culture.
Series [9] concerns Vero. Kind of series: cells. The conditions noted are these: Chlorocebus sabaeus, 72 h.
Series [10] concerns Bacillus subtilis. The series can be described thus: microbe, parasite or virus in culture.
The subject of series [11] is Streptococcus pneumoniae. Kind of series: microbe, parasite or virus in culture.
In series [12] the test system is Acinetobacter. The series can be described thus: microbe, parasite or virus in culture.
Series [13] deals with Bacillus anthracis. Kind of series: microbe, parasite or virus in culture. The conditions noted are these: Sterne.
The test system of series [14] is Mycobacterium tuberculosis. Kind of series: microbe, parasite or virus in culture. As to conditions: H37Rv, 168 h.
In series [15] the test system is Enterococcus faecalis. Kind of series: microbe, parasite or virus in culture.
Series [16] concerns Pseudomonas aeruginosa. The series can be described thus: microbe, parasite or virus in culture.
In series [17] the test system is Burkholderia cepacia. The series can be described thus: microbe, parasite or virus in culture.
Series [18] has as its system Plasma. The conditions noted are these: human, 4 h, 10 µM.
Series [19] concerns the target T1, Bifunctional epoxide hydrolase 2 (Homo sapiens, UniProt P34913).
T1 sequence (P34913 whole entry): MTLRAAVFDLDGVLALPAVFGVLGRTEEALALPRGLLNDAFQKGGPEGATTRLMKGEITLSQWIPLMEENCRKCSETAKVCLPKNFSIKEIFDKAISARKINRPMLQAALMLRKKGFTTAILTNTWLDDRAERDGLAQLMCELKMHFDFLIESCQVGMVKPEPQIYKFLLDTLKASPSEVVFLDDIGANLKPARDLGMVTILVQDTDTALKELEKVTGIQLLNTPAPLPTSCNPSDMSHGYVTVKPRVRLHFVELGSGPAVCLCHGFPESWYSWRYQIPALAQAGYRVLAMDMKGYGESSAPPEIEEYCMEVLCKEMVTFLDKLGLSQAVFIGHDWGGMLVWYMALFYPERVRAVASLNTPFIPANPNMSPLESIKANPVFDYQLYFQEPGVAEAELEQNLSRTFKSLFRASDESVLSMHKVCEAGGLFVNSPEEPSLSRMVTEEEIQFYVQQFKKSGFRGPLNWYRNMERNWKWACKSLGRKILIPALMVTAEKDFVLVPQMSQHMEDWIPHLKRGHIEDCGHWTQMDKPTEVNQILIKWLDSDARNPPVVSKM

Series [20] deals with Klebsiella pneumoniae. The series can be described thus: microbe, parasite or virus in culture.

With `CC(C)(C)c1cc(NC(=O)NC2C3CC4CC(C3)CC2C4)no1` (stereo not given), the MIC in series [1] is > 200 µg/mL; in [2], > 200 µg/mL; in series [3] it was > 200 µg/mL; in series [5], > 200 µg/mL; in [6] it was 200 µg/mL (≈ 630 µM); in series [8] it was > 200 µg/mL. Besides, the MIC is > 200 µg/mL in series [10]; > 200 µg/mL in series [11]; > 200 µg/mL in series [12]; > 200 µg/mL in series [13]; 0.1 µg/mL (≈ 0.315 µM) in [14]; 6.25 µg/mL (≈ 19.7 µM) in series [15]. Besides, the MIC in series [16], in series [17] and in [20] was > 200 µg/mL in each case. Also, in series [4], the solubility (in general, the concentration that dissolves in the medium under given conditions) was 22.7 µg/mL (≈ 71.5 µM). For the same molecule, in series [7], the remaining at […] was > 30%. The IC50 (in general, the midpoint of a concentration-inhibition curve) in series [9] came out at 7 µg/mL (≈ 22.1 µM); in series [19], 73 nM. This molecule also registered a PPB in series [18] of 95.2%.
